Assay results from patent publication US20050197350A1, “Novel quinoline, tetrahydroquinazoline, and pyrimidine derivatives and methods of treatment related to the use thereof” (TAISHO PHARMACEUTICAL CO., LTD., priority 2003, published 2005).
Where a name gives a salt, the structure may show the parent alone.

Target: MCH receptor (Homo sapiens, UniProt Q99705)
Assay: High throughput functional screening FLIPR/FDSS6000 (intracellular Ca2+ evoked by MCH)
Format: cell-based
Settings: FLIPR/FDSS, antagonist activity vs 50 nM MCH; class by percent of control at 10^−7 M or IC50; table after the classification; read-out: class
Source text: High Throughput Functional Screening: FLIPR™
This assay utilized a non-endogenous, constitutively active version of the MCH receptor.
The concentration of free Ca^2+ in the cytosol of any cell is extremely low, whereas its concentration in the extracellular fluid and endoplasmic reticulum (ER) is very high. Thus, there is a large gradient tending to drive Ca^2+ into the cytosol across both the plasma membrane and ER. The FLIPR™ and FDSS6000™ systems (Molecular Devices Corporation, […] Photonics K.K.) are designed to perform functional cell-based assays, such as the measurement of intracellular calcium for high-throughput screening. The measurement of fluorescent is associated with calcium release upon activation of the Gq-coupled receptors.
Fluorometric Imaging Plate Reader system was used to allow for rapid, kinetic measurements of intracellular fluorescence in 96 well microplates (or 384 well microplates). Simultaneous measurements of fluorescence in all wells can be made by FLIPR or FDSS6000™ every second with high sensitivity and precision. These systems are ideal for measuring cell-based functional assays such as monitoring the intracellular calcium fluxes that occur within seconds after activation of the Gq coupled receptor.
Briefly, the cells are seeded into 96 well at 5.5×10^4 cells/well with complete culture media (Dulbecco's Modified Eagle Medium with 10% fetal bovine serum, 2 mM L-glutamine, 1 mM sodium pyruvate and 0.5 mg/ml G418, pH 7.4) for the assay next day. On the day of assay, the media is removed and the cells are incubated with 100 μl of loading buffer (4 μM Fluo4-AM in complete culture media containing 2.5 mM Probenicid, 0.5 mg/ml and 0.2% bovine serum albumin) in 5% CO2 incubator at 37° C. for 1 hr. The loading buffer is removed, and the cells are washed with wash buffer (Hank's Balanced Salt Solution containing 2.5 mM Probenicid, 20 mM HEPES, 0.5 mg/ml and 0.2% bovine serum albumin, pH 7.4)). One hundred fifty μl of wash buffer containing various concentrations of test compound is added to the cells, and the cells are incubated in 5% CO2 incubator at 37° C. for 30 min. […] 530 nm for 290 second. When antagonist activity of compound is tested, 50 nM of MCH is used.
Use of FLIPR™ and FDSS6000™ can be accomplished by following manufacturer's instruction (Molecular Device Corporation and […] Photonics K.K.).

IC50 [nM] | Structure (SMILES)
< 50 | O=C(N[C@H]1CC[C@@H](Nc2ccc3ccccc3n2)CC1)c1cccnc1Oc1ccc(Cl)cc1 [Example 3057, 2-(4-Chloro-phenoxy)-N-[cis-4-(quinolin-2-ylamino)-cyclohexyl]-nicotinamide hydrochloride]
< 50 | O=C(N[C@H]1CC[C@@H](Nc2ccc3ccccc3n2)CC1)c1cccnc1Oc1ccc(Br)cc1 [Example 3058, 2-(4-Bromo-phenoxy)-N-[cis-4-(quinolin-2-ylamino)-cyclohexyl]-nicotinamide hydrochloride]
< 50 | COc1ccc(Oc2ncccc2C(=O)N[C@H]2CC[C@@H](Nc3ccc4ccccc4n3)CC2)cc1 [Example 3059, 2-(4-Methoxy-phenoxy)-N-[cis-4-(quinolin-2-ylamino)-cyclohexyl]-nicotinamide hydrochloride]
50 to 200 | O=C(N[C@H]1CC[C@@H](Nc2ccc3ccccc3n2)CC1)c1cccnc1Oc1ccc(F)c(Cl)c1 [Example 3060, 2-(3-Chloro-4-fluoro-phenoxy)-N-[cis-4-(quinolin-2-ylamino)-cyclohexyl]-nicotinamide hydrochloride]
< 50 | Cc1cccc(Oc2ncccc2C(=O)N[C@H]2CC[C@@H](Nc3ccc4ccccc4n3)CC2)c1 [Example 3061, N-[cis-4-(Quinolin-2-ylamino)-cyclohexyl]-2-m-tolyloxy-nicotinamide hydrochloride]
< 50 | COc1cccc(OCC(=O)N[C@H]2CC[C@@H](Nc3ccc4ccccc4n3)CC2)c1 [Example 3062, 2-(3-Methoxy-phenoxy)-N-[cis-4-(quinolin-2-ylamino)-cyclohexyl]-acetamide hydrochloride]
< 50 | O=C(COc1cccc(Cl)c1)N[C@H]1CC[C@@H](Nc2ccc3ccccc3n2)CC1 [Example 3063, 2-(3-Chloro-phenoxy)-N-[cis-4-(quinolin-2-ylamino)-cyclohexyl]-acetamide hydrochloride]
< 50 | O=C(COc1ccc(F)c(Cl)c1)N[C@H]1CC[C@@H](Nc2ccc3ccccc3n2)CC1 [Example 3064, 2-(3-Chloro-4-fluoro-phenoxy)-N-[cis-4-(quinolin-2-ylamino)-cyclohexyl]-acetamide hydrochloride]
< 50 | O=C(COc1ccc(Cl)c(Cl)c1)N[C@H]1CC[C@@H](Nc2ccc3ccccc3n2)CC1 [Example 3065, 2-(3,4-Dichloro-phenoxy)-N-[cis-4-(quinolin-2-ylamino)-cyclohexyl]-acetamide hydrochloride]
< 50 | CN(CC(=O)N[C@H]1CC[C@@H](Nc2ccc3ccccc3n2)CC1)c1ccccc1 [Example 3066, C-(Methyl-phenyl-amino)-N-[cis-4-(quinolin-2-ylamino)-cyclohexyl]-acetamide dihydrochloride]
50 to 200 | O=C(CNc1ccc(Cl)c(Cl)c1)N[C@H]1CC[C@@H](Nc2ccc3ccccc3n2)CC1 [Example 3067, 2-(3,4-Dichloro-phenylamino)-N-[cis-4-(quinolin-2-ylamino)-cyclohexyl]-acetamide dihydrochloride]
50 to 200 | O=C(NC[C@H]1CC[C@@H](Nc2ccc3ccccc3n2)CC1)c1ccc(F)c(F)c1 [Example 3068, 3,4-Difluoro-N-[cis-4-(quinolin-2-ylamino)-cyclohexylmethyl]-benzamide hydrochloride]
50 to 200 | O=C(NC[C@H]1CC[C@@H](Nc2ccc3ccccc3n2)CC1)c1cccnc1Oc1ccccc1 [Example 3069, 2-Phenoxy-N-[cis-4-(quinolin-2-ylamino)-cyclohexylmethyl]-nicotinamide hydrochloride]
< 50 | Cc1cc(N[C@H]2CC[C@@H](NC(=O)c3cccnc3Oc3ccccc3)CC2)nc2ccccc12 [Example 3070, N-[cis-4-(4-Methylquinolin-2-ylamino)-cyclohexyl]-2-phenoxy-nicotinamide hydrochloride]
< 50 | Cc1cc(N[C@H]2CC[C@@H](NC(=O)Nc3cccc(Cl)c3Cl)CC2)nc2ccccc12 [Example 3072, 1-(2,3-Dichloro-phenyl)-3-[cis-4-(4-methyl-quinolin-2-ylamino)-cyclohexyl]-urea hydrochloride]
< 50 | Cc1cc(N[C@H]2CC[C@@H](NC(=O)c3cccc(Cl)c3)CC2)nc2ccccc12 [Example 3073, 3-Chloro-N-[cis-4-(4-methyl-quinolin-2-ylamino)-cyclohexyl]-benzamide hydrochloride]

IC50 [nM] | Structure (SMILES)
< 50 | Cc1cc(N[C@H]2CC[C@@H](NC(=O)c3csc([N+](=O)[O-])c3)CC2)nc2ccccc12 [Example 3074, 5-Nitro-thiophene-3-carboxylic acid [cis-4-(4-methyl-quinolin-2-ylamino)-cyclohexyl]-amide hydrochloride]
< 50 | Cc1cccc(C(=O)N[C@H]2CC[C@@H](Nc3cc(C)c4ccccc4n3)CC2)c1 [Example 3075, 3-Methyl-N-[cis-4-(4-methyl-quinolin-2-ylamino)-cyclohexyl]-benzamide hydrochloride]
< 50 | COc1cccc(C(=O)N[C@H]2CC[C@@H](Nc3cc(C)c4ccccc4n3)CC2)c1 [Example 3076, 3-Methoxy-N-[cis-4-(4-methyl-quinolin-2-ylamino)-cyclohexyl]-benzamide hydrochloride]
< 50 | Cc1cc(N[C@H]2CC[C@@H](NC(=O)c3ccc(C#N)cc3)CC2)nc2ccccc12 [Example 3077, 4-Cyano-N-[cis-4-(4-methyl-quinolin-2-ylamino)-cyclohexyl]-benzamide hydrochloride]
< 50 | Cc1cc(N[C@H]2CC[C@@H](NC(=O)c3ccc(Cl)c(Cl)c3)CC2)nc2ccccc12 [Example 3078, 3,4-Dichloro-N-[cis-4-(4-methyl-quinolin-2-ylamino)-cyclohexyl]-benzamide hydrochloride]
< 50 | Cc1cc(C(=O)N[C@H]2CC[C@@H](Nc3cc(C)c4ccccc4n3)CC2)ccc1F [Example 3080, 4-Fluoro-3-methyl-N-[cis-4-(4-methyl-quinolin-2-ylamino)-cyclohexyl]-benzamide hydrochloride]
< 50 | Cc1cc(N[C@H]2CC[C@@H](NC(=O)c3cc([N+](=O)[O-])cn3C)CC2)nc2ccccc12 [Example 3081, 1-Methyl-4-nitro-1H-pyrrole-2-carboxylic acid-[cis-4-(4-methyl-quinolin-2-ylamino)-cyclohexyl]-amide hydrochloride]
< 50 | Cc1cc(N[C@H]2CC[C@@H](NC(=O)C3c4ccccc4Oc4ccccc43)CC2)nc2ccccc12 [Example 3082, 9H-Xanthene-9-carboxylic acid-[cis-4-(4-methyl-quinolin-2-ylamino)-cyclohexyl]-amide hydrochloride]
< 50 | Cc1cc(N[C@H]2CC[C@@H](NC(=O)c3ccc(Br)o3)CC2)nc2ccccc12 [Example 3083, 5-Bromo-furan-2-carboxylic acid-[cis-4-(4-methyl-quinolin-2-ylamino)-cyclohexyl]-amide hydrochloride]
< 50 | Cc1cccc(OCC(=O)N[C@H]2CC[C@@H](Nc3cc(C)c4ccccc4n3)CC2)c1 [Example 3084, N-[cis-4-(4-Methyl-quinolin-2-ylamino)-cyclohexyl]-2-m-tolyloxy-acetamide hydrochloride]
< 50 | Cc1cc(N[C@H]2CC[C@@H](NC(=O)c3ccc4nonc4c3)CC2)nc2ccccc12 [Example 3085, Benzo[2,1,3]oxadiazole-5-carboxylic acid-[cis-4-(4-methyl-quinolin-2-ylamino)-cyclohexyl]-amide hydrochloride]
< 50 | Cc1cc(N[C@H]2CC[C@@H](NC(=O)c3cccc(Br)c3)CC2)nc2ccccc12 [Example 3086, 3-Bromo-N-[cis-4-(4-methyl-quinolin-2-ylamino)-cyclohexyl]-benzamide hydrochloride]
< 50 | Cc1cc(N[C@H]2CC[C@@H](NC(=O)c3cccc(C#N)c3)CC2)nc2ccccc12 [Example 3087, 3-Cyano-N-[cis-4-(4-methyl-quinolin-2-ylamino)-cyclohexyl]-benzamide hydrochloride]
< 50 | Cc1cc(N[C@H]2CC[C@@H](NC(=O)c3cccc(C(F)(F)F)c3)CC2)nc2ccccc12 [Example 3088, N-[cis-4-(4-Methyl-quinolin-2-ylamino)-cyclohexyl]-3-trifluoromethyl-benzamide hydrochloride]
< 50 | Cc1cc(N[C@H]2CC[C@@H](NC(=O)C(c3ccccc3)c3ccccc3)CC2)nc2ccccc12 [Example 3089, N-[cis-4-(4-Methyl-quinolin-2-ylamino)-cyclohexyl]-2,2-diphenyl-acetamide hydrochloride]
